US7122662B2, “Tricyclic compound having spiro union” (Mochida Pharmaceutical Co., Ltd., priority 1999, dated 2006)

Each compound was assayed against T1, human FXa (Homo sapiens, UniProt P00742) (assay: Measurement of human FXa inhibitory action). Settings: bioassay procedure of Experimental Example 1, a); reference compounds.
T1 construct: purchased Enzyme Research Laboratories, Inc
Type: biochemical
Description: In vitro FXa inhibitory activity is measured in accordance with the method of Kettner et al. (Journal of Biological Chemistry, vol. 265, pages 18289 to 18297, 1990). To be more specific, human FXa (product of Enzyme Research Laboratories, Inc., 0.019 U/ml) is mixed with a test compound diluted with dimethylsulfoxide (DMSO) at various concentrations and a synthetic substrate S-2222 (Chromogenix AB, 0.4 mM). The mixtures are incubated at 37° C. in Tris-hydrochloric acid buffer (pH 7.5) while the absorbance at 405 nm is measured continuously. To calculate the FXa inhibitory activity of the test compound, the initial reaction velocity is compared with the value for a control containing no test compound. It should be noted that the FXa inhibitory activity of the test compound is generally indicated as IC50.

T1 sequence (P00742 235-488 limits assumed): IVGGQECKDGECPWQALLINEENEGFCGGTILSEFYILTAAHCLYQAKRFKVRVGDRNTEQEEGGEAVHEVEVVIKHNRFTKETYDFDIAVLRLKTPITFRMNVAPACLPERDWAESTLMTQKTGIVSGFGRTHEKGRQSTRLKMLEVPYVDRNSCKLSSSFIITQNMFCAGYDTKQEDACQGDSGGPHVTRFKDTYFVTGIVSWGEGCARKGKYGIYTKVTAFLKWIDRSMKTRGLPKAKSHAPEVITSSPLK
T1 sequence (P00742 41-179 partner limits assumed): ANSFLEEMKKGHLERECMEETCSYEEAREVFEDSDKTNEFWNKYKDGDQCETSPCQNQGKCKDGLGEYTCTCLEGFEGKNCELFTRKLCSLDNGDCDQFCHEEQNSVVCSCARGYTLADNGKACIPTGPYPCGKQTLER

| IC50 [µM] | Structure (SMILES) |
| --- | --- |
| 31 | O=C(C(CNS(=O)(=O)c1ccc2cc(Cl)ccc2c1)NCC1CCN(c2ccncc2)CC1)N1CCS(=O)(=O)CC1 (stereo not drawn) [Compound B, 4-[3-(6-chloronaphthalen-2-ylsulfoneamide)-2-[l-(4-pyridyl)piperidin-4-ylmethyl]aminopropionyl]-1,1-dioxothiomorpholine] |
| 28 | CCOC(=O)[C@H]1CN(S(=O)(=O)c2ccc3cc(Cl)ccc3c2)CC(=O)N1CC1CCN(c2ccncc2)CC1 [Compound C, (R)-4-(6-chloronaphthalen-2-ylsulfonyl)-6-ethoxycarbonyl-l-[1-(4-pyridyl)piperidin-4-ylmethyl]piperazin-2-one] |

Each compound was assayed on human plasma (assay: Measurement of intrinsic coagulation time (APTT) in vitro). Settings: not given.
Type: biochemical
Description: Activated partial thromboplastin time (APTT) is measured in the presence of the test compounds diluted at various concentrations. A test compound diluted with DMSO at various concentrations is mixed with human plasma and APTT reagent. The mixture is incubated at 37° C. for 2 minutes; calcium chloride (25 mM) is added to the mixture; and the coagulation time is thereafter measured. It should be noted that the anticoagulant activity of the test compound is described in terms of the concentration required to double the coagulation time for the case where no test compound is added.

| Structure (SMILES) | Concentration required to double coagulation time [µM] |
| --- | --- |
| O=C1CN(S(=O)(=O)c2ccc3cc(Cl)ccc3c2)CC2OC3(CCN(c4ccncc4)CC3)CN12 (stereo not drawn) [Example 9, 1,4-diaza-4-(6-chloronaphthalen-2-ylsulfonyl)-7-oxa-1′-(4-pyridyl)spiro[bicyclo[4.3.0]nonane-8,4′-piperidin]-2-one] | 0.29 |
| COCCOC(=O)C12CN(S(=O)(=O)c3ccc4cc(Cl)ccc4c3)CC(=O)N1CC1(CCN(c3ccncc3)CC1)O2 (single isomer, unassigned; (-)) [Example 42, (−)-1,4-diaza-4-(6-chloronaphthalen-2-ylsulfonyl)-6-(2-methoxyethoxycarbonyl)-7-oxa-1′-(4-pyridyl)spiro[bicyclo[4.3.0]nonane-8,4′-piperidin]-2-one] | 0.20 |
| COCC12CN(S(=O)(=O)c3cc4ccc(Cl)cc4s3)CC(=O)N1CC1(CCN(c3ccncc3)CC1)N2 (stereo not drawn) [Example 461, 1,4,7-triaza-4-(6-chlorobenzo[b]thiophen-2-ylsulfonyl)-6-(methoxymethyl)-1′-(4-pyridyl)spiro[bicyclo[4.3.0]nonane-8,4′-piperidin]-2-one] | 0.16 |
| COCC12CN(S(=O)(=O)C=Cc3ccc(Cl)s3)CC(=O)N1CC1(CCN(c3ccncc3)CC1)N2C (stereo not drawn) [Example 740, 1,4,7-triaza-4-[2-(5-chlorothiophen-2-yl)ethenesulfonyl]-6-(methoxymethyl)-7-methyl-1′-(4-pyridyl)spiro[bicyclo[4.3.0]nonane-8,4′-piperidin]-2-one] | 0.18 |
| O=C1CN(S(=O)(=O)C=Cc2ccc(Cl)s2)CC2OC3(CCN(c4ccncc4)CC3)CN12 (stereo not drawn) [Example 600, 1,4-diaza-4-[2-(5-chlorothiophen-2-yl)ethenesulfonyl]-7-oxa-1′-(4-pyridyl)spiro[bicyclo[4.3.0]nonane-8,4′-piperidin]-2-one] | 0.22 |
| COCC12CN(S(=O)(=O)c3ccc4ccccc4c3)CC(=O)N1CC1(CCN(c3ccncc3)CC1)O2 (stereo not drawn) [Example 6, 1,4-diaza-6-(methoxymethyl)-4-(2-naphthalenesulfonyl)-7-oxa-1′-(4-pyridyl)spiro[bicyclo[4.3.0]nonane-8,4′-piperidin]-2-one] | 0.99 |
| CC12CN(S(=O)(=O)c3ccc4cc(Cl)ccc4c3)CC(=O)N1CC1(CCN(c3ccncc3)CC1)O2 (stereo not drawn) [Example 69, 1,4-diaza-4-(6-chloronaphthalen-2-ylsulfonyl)-6-methyl-7-oxa-1′-(4-pyridyl)spiro[bicyclo[4.3.0]nonane-8,4′-piperidin]-2-one] | 0.36 |
| NCC12CN(S(=O)(=O)c3ccc4cc(Cl)ccc4c3)CC(=O)N1CC1(CCN(c3ccncc3)CC1)O2 (stereo not drawn) [Example 58, 6-(aminomethyl)-1,4-diaza-4-(6-chloronaphthalen-2-ylsulfonyl)-7-oxa-1′-(4-pyridyl)spiro[bicyclo[4.3.0]nonane-8,4′-piperidin]-2-one] | 0.18 |
| COCC12CN(S(=O)(=O)c3ccc4cc(Cl)ccc4c3)CC(=O)N1CC1(CCN(c3cc[n+](C)cc3)CC1)O2.Cc1ccc(S(=O)(=O)[O-])cc1 (stereo not drawn) [Example 23, 4-[1,4-diaza-4-(6-chloronaphthalen-2-ylsulfonyl)-6-(methoxymethyl)-7-oxa-2-oxospiro[bicyclo[4.3.0]nonane-8,4′-piperidin-1′-yl]]-1-methylpyridinium p-toluenesulfonate] | 0.62 |
| COCC12CN(S(=O)(=O)c3cc4cc(Cl)ccc4o3)CC(=O)N1CC1(CCN(c3ccncc3)CC1)N2 (stereo not drawn) [Example 471, 1,4,7-triaza-4-(5-chlorobenzo[b]furan-2-ylsulfonyl)-6-(methoxymethyl)-1′-(4-pyridyl)spiro[bicyclo[4.3.0]nonane-8,4′-piperidin]-2-one] | 0.27 |
| O=C1CN(S(=O)(=O)c2cc3ccc(Cl)cc3s2)CC2NC3(CCN(c4ccncc4)CC3)CN12 (stereo not drawn) [Example 275, 1,4,7-triaza-4-(6-chlorobenzo[b]thiophen-2-ylsulfonyl)-1′-(4-pyridyl)spiro[bicyclo[4.3.0]nonane-8,4′-piperidin]-2-one] | 0.17 |
| COCC12CN(S(=O)(=O)c3cc4cc(Cl)ccc4o3)CC(=O)N1CC1(CCN(c3ccncc3)CC1)N2C (stereo not drawn) [Example 533, 1,4,7-triaza-4-(5-chlorobenzo[b]furan-2-ylsulfonyl)-6-(methoxymethyl)-7-methyl-1′-(4-pyridyl)spiro[bicyclo[4.3.0]nonane-8,4′-piperidin]-2-one] | 0.35 |
| COCC12CN(S(=O)(=O)C3=Cc4ccc(Cl)cc4OC3)CC(=O)N1CC1(CCN(c3ccncc3)CC1)O2 (stereo not drawn) [Example 388, 1,4-diaza-4-(7-chloro-2H-benzopyran-3-sulfonyl)-6-(methoxymethyl)-7-oxa-1′-(4-pyridyl)spiro[bicyclo[4.3.0]nonane-8,4′-piperidin]-2-one] | 0.22 |
| CC(C)OC(=O)C12CN(S(=O)(=O)c3ccc4cc(Cl)ccc4c3)CC(=O)N1CC1(CCN(c3ccncc3)CC1)O2 (stereo not drawn) [Example 29, 1,4-diaza-4-(6-chloronaphthalen-2-ylsulfonyl)-6-(isopropoxycarbonyl)-7-oxa-1′-(4-pyridyl)spiro[bicyclo[4.3.0]nonane-8,4′-piperidin]-2-one] | 0.90 |
| COCC12CN(S(=O)(=O)c3cc4ccc(Cl)cc4s3)CC(=O)N1CC1(CCN(c3ccncc3)CC1)O2 (stereo not drawn) [Example 399, 1,4-diaza-4-(6-chlorobenzo[b]thiophen-2-ylsulfonyl)-6-(methoxymethyl)-7-oxa-1′-(4-pyridyl)spiro[bicyclo[4.3.0]nonane-8,4′-piperidin]-2-one] | 0.18 |
| O=C(O)COCC12CN(S(=O)(=O)c3ccc4cc(Cl)ccc4c3)CC(=O)N1CC1(CCN(c3ccncc3)CC1)O2 (stereo not drawn) [Example 5, 1,4-diaza-4-(6-chloronaphthalen-2-ylsulfonyl)-6-(carboxymethoxymethyl)-7-oxa-1′-(4-pyridyl)spiro[bicyclo[4.3.0]nonane-8,4′-piperidin]-2-one] | 0.43 |
